Values of other authors, collected in PMC3170264 (Retrovirology, 2011).

Test system: Y143 mutant HIV-1 integrase
Conditions: cited from earlier work

For COc1cc2c(cc1Cc1cccc(Cl)c1F)c(=O)c(C(=O)O)cn2[C@H](CO)C(C)C [elvitegravir], the “activity against Y143 mutant HIV-1 integrase” value is given as “fully active”.
